Read-outs that look alike come from different tables or passages of the source.
Tests used:
Test in all cases: KINOMEscan (ScanMAX) kinase profiling
Assay type in all cases: binding
panel of 468 kinases [1] = molecular target: T1, panel of 468 kinases (Homo sapiens, UniProt P00519, Q252H); settings: 1 μM, read-out: % control
T1 construct: purchased KINOMEscan (ScanMAX) service

panel of 468 kinases [2] = molecular target: T2, panel of 468 kinases (Homo sapiens, UniProt P14616); settings: INSRR; 1 μM; read-out: % control
T2 construct: purchased KINOMEscan (ScanMAX) service
T2 sequence (P14616 27-1297): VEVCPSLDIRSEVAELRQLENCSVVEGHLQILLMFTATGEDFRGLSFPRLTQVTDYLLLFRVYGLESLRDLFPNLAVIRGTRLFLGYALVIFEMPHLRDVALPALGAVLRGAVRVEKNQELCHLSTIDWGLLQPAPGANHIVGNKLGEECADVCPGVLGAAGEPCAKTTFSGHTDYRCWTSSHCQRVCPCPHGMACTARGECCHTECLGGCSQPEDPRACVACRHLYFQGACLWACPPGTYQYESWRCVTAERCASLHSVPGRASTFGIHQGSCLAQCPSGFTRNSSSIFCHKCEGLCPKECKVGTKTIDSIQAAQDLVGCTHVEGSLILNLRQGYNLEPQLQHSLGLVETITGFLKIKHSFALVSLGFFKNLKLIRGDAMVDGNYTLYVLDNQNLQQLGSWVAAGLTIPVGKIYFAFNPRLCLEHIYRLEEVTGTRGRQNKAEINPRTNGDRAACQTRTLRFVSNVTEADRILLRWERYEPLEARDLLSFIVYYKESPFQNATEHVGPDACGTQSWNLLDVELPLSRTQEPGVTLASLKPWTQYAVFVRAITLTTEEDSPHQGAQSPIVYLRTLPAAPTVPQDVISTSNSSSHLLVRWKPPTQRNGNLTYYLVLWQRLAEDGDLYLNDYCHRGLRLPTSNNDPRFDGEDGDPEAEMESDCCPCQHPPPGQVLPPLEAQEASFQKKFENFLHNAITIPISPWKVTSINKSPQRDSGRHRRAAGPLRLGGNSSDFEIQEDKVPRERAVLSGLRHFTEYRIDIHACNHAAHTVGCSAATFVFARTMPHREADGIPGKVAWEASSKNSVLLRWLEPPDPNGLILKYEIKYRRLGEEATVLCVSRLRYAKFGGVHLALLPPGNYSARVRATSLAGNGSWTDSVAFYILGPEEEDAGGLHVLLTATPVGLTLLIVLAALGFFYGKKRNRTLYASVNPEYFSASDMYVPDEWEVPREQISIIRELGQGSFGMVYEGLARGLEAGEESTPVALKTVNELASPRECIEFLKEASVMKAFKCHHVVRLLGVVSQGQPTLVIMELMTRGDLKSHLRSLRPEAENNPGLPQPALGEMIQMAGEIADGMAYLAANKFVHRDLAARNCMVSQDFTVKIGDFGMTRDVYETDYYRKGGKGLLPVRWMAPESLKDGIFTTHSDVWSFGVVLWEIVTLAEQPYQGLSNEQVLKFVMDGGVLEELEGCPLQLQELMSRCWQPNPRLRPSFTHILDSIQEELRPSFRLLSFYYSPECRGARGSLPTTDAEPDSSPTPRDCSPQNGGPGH

panel of 468 kinases [3] = molecular target: T3, panel of 468 kinases (Homo sapiens, UniProt Q02779); settings: MLK2; 1 μM; read-out: % control
T3 construct: purchased KINOMEscan (ScanMAX) service
T3 sequence (Q02779 whole entry): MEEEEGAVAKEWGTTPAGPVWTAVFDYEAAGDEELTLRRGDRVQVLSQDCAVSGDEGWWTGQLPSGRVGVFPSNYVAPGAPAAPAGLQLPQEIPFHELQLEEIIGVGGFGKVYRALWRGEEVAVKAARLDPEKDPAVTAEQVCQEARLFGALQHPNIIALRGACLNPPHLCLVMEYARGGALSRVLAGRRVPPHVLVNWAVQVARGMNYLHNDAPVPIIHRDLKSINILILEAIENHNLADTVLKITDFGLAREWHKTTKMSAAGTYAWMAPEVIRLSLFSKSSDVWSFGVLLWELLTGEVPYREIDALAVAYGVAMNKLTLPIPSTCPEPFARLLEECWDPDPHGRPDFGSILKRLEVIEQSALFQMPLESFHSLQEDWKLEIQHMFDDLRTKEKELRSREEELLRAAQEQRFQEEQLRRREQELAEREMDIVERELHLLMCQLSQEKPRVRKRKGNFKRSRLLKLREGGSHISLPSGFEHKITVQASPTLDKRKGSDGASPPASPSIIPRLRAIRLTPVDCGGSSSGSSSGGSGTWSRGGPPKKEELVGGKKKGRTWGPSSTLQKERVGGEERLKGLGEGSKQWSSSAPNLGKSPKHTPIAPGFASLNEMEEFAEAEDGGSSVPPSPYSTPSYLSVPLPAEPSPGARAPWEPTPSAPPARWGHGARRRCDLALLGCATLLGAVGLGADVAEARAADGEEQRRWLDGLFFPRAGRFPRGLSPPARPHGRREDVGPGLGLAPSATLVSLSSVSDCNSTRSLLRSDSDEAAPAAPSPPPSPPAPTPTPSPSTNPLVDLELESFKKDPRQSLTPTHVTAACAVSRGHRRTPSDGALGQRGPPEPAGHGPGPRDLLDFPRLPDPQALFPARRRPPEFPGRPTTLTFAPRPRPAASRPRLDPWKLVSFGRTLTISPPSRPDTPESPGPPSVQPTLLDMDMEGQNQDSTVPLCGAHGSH

panel of 468 kinases [4] = molecular target: T4, panel of 468 kinases (Homo sapiens, UniProt Q16832); settings: DDR2; 1 μM; read-out: % control
T4 construct: purchased KINOMEscan (ScanMAX) service
T4 sequence (Q16832 22-855): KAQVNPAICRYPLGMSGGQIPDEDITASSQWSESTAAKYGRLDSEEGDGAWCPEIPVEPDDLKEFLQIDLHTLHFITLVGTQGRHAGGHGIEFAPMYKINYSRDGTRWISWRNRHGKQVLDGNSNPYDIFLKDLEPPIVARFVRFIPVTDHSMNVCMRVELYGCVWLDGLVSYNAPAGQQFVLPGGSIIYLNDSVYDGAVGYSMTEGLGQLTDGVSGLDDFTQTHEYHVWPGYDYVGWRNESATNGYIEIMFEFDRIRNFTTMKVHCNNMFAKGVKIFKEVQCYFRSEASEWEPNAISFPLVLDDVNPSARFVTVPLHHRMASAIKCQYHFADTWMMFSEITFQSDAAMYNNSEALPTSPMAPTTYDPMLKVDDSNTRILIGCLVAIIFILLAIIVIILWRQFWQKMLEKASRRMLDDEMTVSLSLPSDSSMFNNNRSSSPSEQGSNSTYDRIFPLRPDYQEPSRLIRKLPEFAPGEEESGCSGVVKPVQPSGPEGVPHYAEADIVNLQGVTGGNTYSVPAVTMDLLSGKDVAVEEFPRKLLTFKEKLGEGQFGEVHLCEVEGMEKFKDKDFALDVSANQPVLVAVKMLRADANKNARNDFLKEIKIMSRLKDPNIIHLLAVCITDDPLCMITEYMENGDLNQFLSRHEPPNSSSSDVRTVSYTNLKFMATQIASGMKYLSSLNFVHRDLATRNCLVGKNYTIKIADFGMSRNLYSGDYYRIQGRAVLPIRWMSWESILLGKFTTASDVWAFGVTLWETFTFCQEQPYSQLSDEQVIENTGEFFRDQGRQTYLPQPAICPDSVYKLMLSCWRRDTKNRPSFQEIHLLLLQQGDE

panel of 468 kinases [5] = molecular target: T5, panel of 468 kinases (Homo sapiens, UniProt Q8NE63); settings: HIPK4; 1 μM; read-out: % control
T5 construct: purchased KINOMEscan (ScanMAX) service
T5 sequence (Q8NE63 1-616): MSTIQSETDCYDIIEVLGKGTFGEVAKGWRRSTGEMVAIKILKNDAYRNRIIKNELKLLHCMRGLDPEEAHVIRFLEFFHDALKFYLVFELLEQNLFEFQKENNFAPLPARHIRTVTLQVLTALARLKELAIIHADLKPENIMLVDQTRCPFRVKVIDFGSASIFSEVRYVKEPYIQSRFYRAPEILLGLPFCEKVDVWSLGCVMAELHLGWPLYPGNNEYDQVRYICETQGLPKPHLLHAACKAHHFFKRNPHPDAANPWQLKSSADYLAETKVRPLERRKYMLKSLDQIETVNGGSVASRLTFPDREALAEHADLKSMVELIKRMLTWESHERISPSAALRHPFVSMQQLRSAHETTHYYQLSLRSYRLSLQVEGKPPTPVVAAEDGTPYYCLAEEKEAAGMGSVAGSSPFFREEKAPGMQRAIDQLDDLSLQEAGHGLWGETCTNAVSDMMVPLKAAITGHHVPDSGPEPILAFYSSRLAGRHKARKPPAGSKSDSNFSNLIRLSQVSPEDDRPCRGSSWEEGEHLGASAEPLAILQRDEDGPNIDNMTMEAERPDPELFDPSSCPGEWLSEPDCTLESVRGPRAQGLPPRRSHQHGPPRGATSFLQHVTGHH

panel of 468 kinases [6] = molecular target: T6, panel of 468 kinases (Homo sapiens, UniProt Q8TDR2); settings: STK35; 1 μM; read-out: % control
T6 construct: purchased KINOMEscan (ScanMAX) service
T6 sequence (Q8TDR2 whole entry): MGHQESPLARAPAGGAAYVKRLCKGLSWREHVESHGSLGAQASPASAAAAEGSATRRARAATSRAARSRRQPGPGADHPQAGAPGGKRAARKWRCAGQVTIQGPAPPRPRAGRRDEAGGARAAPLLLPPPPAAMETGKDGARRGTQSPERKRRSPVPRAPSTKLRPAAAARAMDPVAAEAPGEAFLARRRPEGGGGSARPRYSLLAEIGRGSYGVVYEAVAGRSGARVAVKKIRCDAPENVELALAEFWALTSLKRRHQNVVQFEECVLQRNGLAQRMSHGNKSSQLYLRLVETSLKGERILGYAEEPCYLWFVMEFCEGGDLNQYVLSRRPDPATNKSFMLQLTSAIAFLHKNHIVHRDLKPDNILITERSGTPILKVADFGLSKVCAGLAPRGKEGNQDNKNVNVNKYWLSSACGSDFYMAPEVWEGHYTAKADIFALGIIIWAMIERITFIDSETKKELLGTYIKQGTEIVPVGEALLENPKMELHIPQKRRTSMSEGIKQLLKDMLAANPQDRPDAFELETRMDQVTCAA

panel of 468 kinases [7] = molecular target: T7, panel of 468 kinases (Homo sapiens, UniProt Q9Y616); settings: IRAK3; 1 μM; read-out: % control
T7 construct: purchased KINOMEscan (ScanMAX) service
T7 sequence (Q9Y616 1-596): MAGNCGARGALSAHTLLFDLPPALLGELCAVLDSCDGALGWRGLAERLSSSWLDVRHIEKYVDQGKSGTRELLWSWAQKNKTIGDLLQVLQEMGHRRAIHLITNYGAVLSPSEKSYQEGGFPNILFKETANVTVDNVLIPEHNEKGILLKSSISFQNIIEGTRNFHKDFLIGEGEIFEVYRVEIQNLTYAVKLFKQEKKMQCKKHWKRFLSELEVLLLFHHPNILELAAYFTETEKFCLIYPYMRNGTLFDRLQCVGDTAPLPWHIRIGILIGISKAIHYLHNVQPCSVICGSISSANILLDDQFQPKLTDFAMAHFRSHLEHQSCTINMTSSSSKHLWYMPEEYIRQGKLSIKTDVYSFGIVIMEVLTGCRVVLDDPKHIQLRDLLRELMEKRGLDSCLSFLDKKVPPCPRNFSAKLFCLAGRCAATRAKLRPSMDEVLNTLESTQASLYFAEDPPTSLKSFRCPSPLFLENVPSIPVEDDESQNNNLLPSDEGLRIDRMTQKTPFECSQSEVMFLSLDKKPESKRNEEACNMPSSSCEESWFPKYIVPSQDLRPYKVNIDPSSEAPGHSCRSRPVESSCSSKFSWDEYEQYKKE

Compound | remaining binding at 1 µM (panel of 468 kinases [1]; ABL1(Q252H)-nonphosphorylated) [%] | remaining binding at 1 µM (panel of 468 kinases [1]; ABL1(Q252H)-phosphorylated) [%] | remaining binding at 1 µM (panel of 468 kinases [2]) [%] | remaining binding at 1 µM (panel of 468 kinases [3]) [%] | remaining binding at 1 µM (panel of 468 kinases [4]) [%] | remaining binding at 1 µM (panel of 468 kinases [5]) [%] | remaining binding at 1 µM (panel of 468 kinases [6]) [%] | remaining binding at 1 µM (panel of 468 kinases [7]) [%]
CNc1nc(Nc2ccc(C(=O)N3CCC(N4CCOCC4)CC3)c3c2OCO3)nc2[nH]cc(Cl)c12 [Compound 75, (7-((5-chloro-4-(methylamino)-7H-pyrrolo[2,3-d]pyrimidin-2-yl)amino)benzo[d][1,3]dioxol-4-yl)(4-morpholinopiperidin-1-yl)methanone] | 100 | 57 | 88 | 93 | 93 | 97 | 100 | 93
CNc1nc(Nc2ccc(S(=O)(=O)N3CCC(N4CCOCC4)CC3)cc2OC)nc2[nH]cc(Cl)c12 [Compound 12, 5-chloro-N2-(2-methoxy-4-((4-morpholinopiperidin-1-yl)sulfonyl)phenyl)-N4-methyl-7H-pyrrolo[2,3-d]pyrimidine-2,4-diamine] | 100 | 79 | 85 | 99 | 84 | 100 | 100 | 100
CNc1nc(Nc2ccc(P3(=O)CCN(C4CCOCC4)CC3)cc2OC)nc2[nH]cc(Cl)c12 [Compound 77, 4-(4-((5-chloro-4-(methylamino)-7H-pyrrolo[2,3-d]pyrimidin-2-yl)amino)-3-methoxyphenyl)-1-(tetrahydro-2H-pyran-4-yl)-1,4-azaphosphinane 4-oxide] | 100 | 62 | 62 | 99 | 84 | 99 | 100 | 94
